Experimental findings from patent US20090306032A1, “Use of solid lipid nanoparticles Comprising Cholesteryl Propionate and/or Cholesteryl Butyrate” (priority 2005, published 2009) are described below.

The structures appear in SMILES notation. pIC50: −log10 of the molar value.

Assay [1] deals with adhesion of polymorphonuclear cells to HUVEC cells. In words: Adhesion assay, PMN to HUVEC, PAF stimulus. The settings on record: Homo sapiens, 5 min. The format is cell-based. On the procedure:
(§1) Human umbilical vein endothelial cells (HUVEC cells) were suitably treated, grown to confluence in 24 well plates, washed and maintained for one day in M199 medium supplemented with 10% BCS (Bovine Calf Serum).
(§2) Polymorphonuclear cells (PMN) were prepared from citrated venous blood obtained from healthy volunteers. Polymorphonuclear cells (PMN), at the concentration of 10^7 cells/ml were labeled with fluorescein diacetate (5 μg/ml) for 30 minutes at 37° C., washed with BSS and plated at the concentration of 10^6 cells per well in a final volume of 0.25 ml of BSS.
(§3) The antiadhesive effects of cholesteryl butyrate nanoparticles prepared in example 1 and of sodium butyrate were measured by an adhesion assay. In detail, human polymorphonuclear cells and HUVEC endothelial cells were incubated with increasing concentrations of cholesteryl butyrate or sodium butyrate nanoparticles in presence of a substance, PAF or IL-1β, which induces adhesion of PMN cells to endothelial HUVEC cells. Adhesion was then assessed by fluorescence microimaging.
a) The effect of cholesteryl butyrate nanoparticles prepared as in example 1, or of sodium butyrate, on adhesion of polymorphonuclear cells to HUVEC cells was examined in presence of the adhesion stimulus provided by PAF (10^−7M). […]

Assay [2] has the same test system. In words: Adhesion assay, PMN to HUVEC, IL-1β stimulus. The settings on record: Homo sapiens, 4 h, read-out: inhibition of the adhesion. The assay is classed as cell-based. The procedure: as §1, §2, §3
b) The effect of cholesteryl butyrate nanoparticles prepared in example 1 or of sodium butyrate on adhesion of polymorphonuclear cells to HUVEC cells was also examined in presence of the adhesion stimulus provided by IL-1β (0.05 ng/ml). […]

Regarding `CCCC(=O)[O-].[Na+]` [sodium butyrate], the pIC50 in assay [1] (read-out: IC50 (inhibition of adhesion)) is 6.40. In addition, the figures for the inhibition at 10 µM in assay [1] (read-out: inhibition of the adhesion) and in assay [2] were 74% and 22%, respectively.

Usually pIC50 stands for the IC50 on a negative log10 scale, so that one unit is a factor of ten. What is called inhibition is the change of the read-out against control, counted positive when it falls.
